Assay results from PubChem BioAssay AID2060904 (Molecular Pharmacology Branch, DTP, NCI, 2025).

Tested on: 349418-098-R-PDC complex spheroid viability
Assay: Anticancer human tumor 349418-098-R-PDC patient-derived lung adenocarcinoma cell line growth inhibition [RAS]
Conditions: for IC50: curve of first compound; for viability, T/C: stronger effect = lower value
Outline: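 Tumour cells grown as complex spheroids with HUVEC endothelial cells and mesenchymal stem cells, treated with RAS pathway inhibitor combinations. Each agent spans half-log steps from near clinical Cmax, or 10 microM where Cmax is unknown.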

[1] = second compound 0.000949 µM, first compound 0.0316 µM
[2] = second compound 0.000949 µM, first compound 0.1 µM
[3] = second compound 0.000949 µM, first compound 0.316 µM
[4] = second compound 0.000949 µM, first compound 1 µM
[5] = second compound 0.003 µM, first compound 0.0316 µM
[6] = second compound 0.003 µM, first compound 0.1 µM
[7] = second compound 0.003 µM, first compound 0.316 µM
[8] = second compound 0.003 µM, first compound 1 µM
[9] = second compound 0.00949 µM, first compound 0.0316 µM
[10] = second compound 0.00949 µM, first compound 0.1 µM
[11] = second compound 0.00949 µM, first compound 0.316 µM
[12] = second compound 0.00949 µM, first compound 1 µM
[13] = second compound 0.03 µM, first compound 0.0316 µM
[14] = second compound 0.03 µM, first compound 0.1 µM
[15] = second compound 0.03 µM, first compound 0.316 µM
[16] = second compound 0.03 µM, first compound 1 µM
[17] = second compound 0.0949 µM, first compound 0.0316 µM
[18] = second compound 0.0949 µM, first compound 0.1 µM
[19] = second compound 0.0949 µM, first compound 0.316 µM
[20] = second compound 0.0949 µM, first compound 1 µM
[21] = second compound 0.3 µM, first compound 0.0316 µM
[22] = second compound 0.3 µM, first compound 0.1 µM
[23] = second compound 0.3 µM, first compound 0.316 µM
[24] = second compound 0.3 µM, first compound 1 µM
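Note: spheroids exposed to compound for seven days before viability readout.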

In the case of `Cc1nc(N2CCC3(CC2)COC(C)C3N)c(CO)nc1Sc1ccnc(N)c1Cl` (stereo unspecified) + CCn1c(-c2cccnc2C(C)OC)c2c3cc(ccc31)N1CCOC(CC(NC(=O)C(C(C)C)N(C)C(=O)C3(F)CCN(C(=O)C#CC(C)(C)N(C)C)CC3)C(=O)N3CCCC(N3)C(=O)OCC(C)(C)C2)C1, the IC50 (second compound 0.000949 µM) is reported as > 10000 nM, the IC50 (second compound 0.003 µM) is reported as > 10000 nM and the IC50 (second compound 0.00949 µM) is reported as > 10000 nM. The IC50 (second compound 0.03 µM) was > 10000 nM, the IC50 (second compound 0.0949 µM) was > 10000 nM and the IC50 (second compound 0.3 µM) was > 10000 nM. It also gave a viability, T/C [1] of 97.9%, a viability, T/C [2] of 86.4% and a viability, T/C [3] of 102%. It also gave a viability, T/C [4] of 103%, a viability, T/C (second compound 0.000949 µM, first compound 3.16 µM) of 101% and a viability, T/C (second compound 0.000949 µM, first compound 10 µM) of 89.5%. The viability, T/C [5] was 102%, the viability, T/C [6] was 91.9% and the viability, T/C [7] was 119%. The viability, T/C [8] was 96.7%, the viability, T/C (second compound 0.003 µM, first compound 3.16 µM) was 97.1% and the viability, T/C (second compound 0.003 µM, first compound 10 µM) was 108%. It also gave a viability, T/C [9] of 103%, a viability, T/C [10] of 106% and a viability, T/C [11] of 106%. The viability, T/C [12] was 99.8%, the viability, T/C (second compound 0.00949 µM, first compound 3.16 µM) was 118% and the viability, T/C (second compound 0.00949 µM, first compound 10 µM) was 90.5%. The viability, T/C [13] was 119%, the viability, T/C [14] was 107% and the viability, T/C [15] was 99.3%. For the same compound, the viability, T/C [16] was 110%, the viability, T/C (second compound 0.03 µM, first compound 3.16 µM) was 115% and the viability, T/C (second compound 0.03 µM, first compound 10 µM) was 91.5%. The viability, T/C [17] was 98.5%, the viability, T/C [18] was 98.9% and the viability, T/C [19] was 105%. For the same compound, the viability, T/C [20] was 87.9%, the viability, T/C (second compound 0.0949 µM, first compound 3.16 µM) was 101% and the viability, T/C (second compound 0.0949 µM, first compound 10 µM) was 100%. The viability, T/C [21] was 83.7%, the viability, T/C [22] was 89.3% and the viability, T/C [23] was 100%. It also gave a viability, T/C [24] of 87.8%, a viability, T/C (second compound 0.3 µM, first compound 3.16 µM) of 101% and a viability, T/C (second compound 0.3 µM, first compound 10 µM) of 77.4%.

In the case of `Nc1ccn(C2OC(CO)C(O)C2(F)F)c(=O)n1` (stereo unspecified) + CCn1c(-c2cccnc2C(C)OC)c2c3cc(ccc31)N1CCOC(CC(NC(=O)C(C(C)C)N(C)C(=O)C3(F)CCN(C(=O)C#CC(C)(C)N(C)C)CC3)C(=O)N3CCCC(N3)C(=O)OCC(C)(C)C2)C1, the IC50 (second compound 0.000949 µM) is reported as < 3.16 nM, the IC50 (second compound 0.003 µM) is reported as < 3.16 nM and the IC50 (second compound 0.00949 µM) is reported as < 3.16 nM. The IC50 (second compound 0.03 µM) was < 3.16 nM, the IC50 (second compound 0.0949 µM) was < 3.16 nM and the IC50 (second compound 0.3 µM) was < 3.16 nM. It also gave a viability, T/C (second compound 0.000949 µM, first compound 0.00316 µM) of 23.6%, a viability, T/C (second compound 0.000949 µM, first compound 0.01 µM) of 7.06% and a viability, T/C [1] of 5.46%. It also gave a viability, T/C [2] of 4.18%, a viability, T/C [3] of 4.47% and a viability, T/C [4] of 3.97%. It also gave a viability, T/C (second compound 0.003 µM, first compound 0.00316 µM) of 22%, a viability, T/C (second compound 0.003 µM, first compound 0.01 µM) of 6.17% and a viability, T/C [5] of 5.46%. For the same compound, the viability, T/C [6] was 5.26%, the viability, T/C [7] was 4.96% and the viability, T/C [8] was 4.2%. It also gave a viability, T/C (second compound 0.00949 µM, first compound 0.00316 µM) of 20.5%, a viability, T/C (second compound 0.00949 µM, first compound 0.01 µM) of 8.01% and a viability, T/C [9] of 5.62%. The viability, T/C [10] was 4.89%, the viability, T/C [11] was 6.38% and the viability, T/C [12] was 3.73%. The viability, T/C (second compound 0.03 µM, first compound 0.00316 µM) was 19.7%, the viability, T/C (second compound 0.03 µM, first compound 0.01 µM) was 6.08% and the viability, T/C [13] was 4.75%. It also gave a viability, T/C [14] of 5.13%, a viability, T/C [15] of 5.14% and a viability, T/C [16] of 3.58%. For the same compound, the viability, T/C (second compound 0.0949 µM, first compound 0.00316 µM) was 19.9%, the viability, T/C (second compound 0.0949 µM, first compound 0.01 µM) was 7.64% and the viability, T/C [17] was 4.68%. It also gave a viability, T/C [18] of 4.96%, a viability, T/C [19] of 5.01% and a viability, T/C [20] of 4.01%. The viability, T/C (second compound 0.3 µM, first compound 0.00316 µM) was 16.6%, the viability, T/C (second compound 0.3 µM, first compound 0.01 µM) was 6.52% and the viability, T/C [21] was 4.44%. It also gave a viability, T/C [22] of 4.51%, a viability, T/C [23] of 5.17% and a viability, T/C [24] of 3.99%.

Compound `CC(C)n1nc(-c2ccc3oc(N)nc3c2)c2c(N)ncnc21` + C=CC(=O)N1CCN(c2nc(OCC3CCCN3C)nc3c(F)c(-c4nc(N)cc(C)c4C(F)(F)F)c(Cl)cc23)C(C)C1 has an IC50 (second compound 0.00316 µM) of 5.33 nM, an IC50 (second compound 0.01 µM) of 3.53 nM and an IC50 (second compound 0.0316 µM) of 3.24 nM. It also gave an IC50 (second compound 0.1 µM) of 3.99 nM, an IC50 (second compound 0.316 µM) of 3.07 nM and an IC50 (second compound 1 µM) of 3.64 nM. It also gave a viability, T/C (second compound 0.00316 µM, first compound 0.000316 µM) of 85.2%, a viability, T/C (second compound 0.00316 µM, first compound 0.001 µM) of 90.4% and a viability, T/C (second compound 0.00316 µM, first compound 0.00316 µM) of 72.3%. For the same compound, the viability, T/C (second compound 0.00316 µM, first compound 0.01 µM) was 22.8%, the viability, T/C (second compound 0.00316 µM, first compound 0.0316 µM) was 8.58% and the viability, T/C (second compound 0.00316 µM, first compound 0.1 µM) was 6.85%. The viability, T/C (second compound 0.01 µM, first compound 0.000316 µM) was 79.3%, the viability, T/C (second compound 0.01 µM, first compound 0.001 µM) was 124% and the viability, T/C (second compound 0.01 µM, first compound 0.00316 µM) was 54.2%. For the same compound, the viability, T/C (second compound 0.01 µM, first compound 0.01 µM) was 15.6%, the viability, T/C (second compound 0.01 µM, first compound 0.0316 µM) was 7.53% and the viability, T/C (second compound 0.01 µM, first compound 0.1 µM) was 7.07%. For the same compound, the viability, T/C (second compound 0.0316 µM, first compound 0.000316 µM) was 76.6%, the viability, T/C (second compound 0.0316 µM, first compound 0.001 µM) was 115% and the viability, T/C (second compound 0.0316 µM, first compound 0.00316 µM) was 50.9%. For the same compound, the viability, T/C (second compound 0.0316 µM, first compound 0.01 µM) was 14.1%, the viability, T/C (second compound 0.0316 µM, first compound 0.0316 µM) was 8.15% and the viability, T/C (second compound 0.0316 µM, first compound 0.1 µM) was 5.8%. For the same compound, the viability, T/C (second compound 0.1 µM, first compound 0.000316 µM) was 52.8%, the viability, T/C (second compound 0.1 µM, first compound 0.001 µM) was 98.9% and the viability, T/C (second compound 0.1 µM, first compound 0.00316 µM) was 58.2%. For the same compound, the viability, T/C (second compound 0.1 µM, first compound 0.01 µM) was 14.5%, the viability, T/C (second compound 0.1 µM, first compound 0.0316 µM) was 8.94% and the viability, T/C (second compound 0.1 µM, first compound 0.1 µM) was 5.94%. It also gave a viability, T/C (second compound 0.316 µM, first compound 0.000316 µM) of 63.4%, a viability, T/C (second compound 0.316 µM, first compound 0.001 µM) of 90.8% and a viability, T/C (second compound 0.316 µM, first compound 0.00316 µM) of 49.3%. The viability, T/C (second compound 0.316 µM, first compound 0.01 µM) was 14%, the viability, T/C (second compound 0.316 µM, first compound 0.0316 µM) was 8.74% and the viability, T/C (second compound 0.316 µM, first compound 0.1 µM) was 6.6%. For the same compound, the viability, T/C (second compound 1 µM, first compound 0.000316 µM) was 57.6%, the viability, T/C (second compound 1 µM, first compound 0.001 µM) was 79.6% and the viability, T/C (second compound 1 µM, first compound 0.00316 µM) was 53.8%. It also gave a viability, T/C (second compound 1 µM, first compound 0.01 µM) of 15.2%, a viability, T/C (second compound 1 µM, first compound 0.0316 µM) of 8.85% and a viability, T/C (second compound 1 µM, first compound 0.1 µM) of 5.88%.
